Data set [1] concerns HIV-1 (HIV-1 RF, HIV-1 NL4-3) in CEM-SS / MT-2 cells. Kind of data set: Cytopathic effect (CPE) inhibition assay (XTT/MTT dye reduction). The data set is classed as cell-based. Particulars: Human immunodeficiency virus 1, NL43; read-out: Ave CPE EC50. The method, boiled down:
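Readout is XTT reduction (A450, 4 h) after six days of culturing virus-infected (moi 0.025–0.819) or mock-infected CEM-SS/MT-2 cells, 2×10^4 per well, with half-log compound series. Antiviral EC50 and cytotoxic CC50 are relative to uninfected compound-free cells. Therapeutic index is CC50 divided by EC50.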

The target in data set [2] is T1, HIV-1 protease (Q7S mutant form) (Human immunodeficiency virus type 1 group M subtype B, UniProt P04585, Q495S).
T1 construct: made in house
The experiment in a line: HIV-1 Protease RET assay. The data set is classed as biochemical. Particulars: Ave. Ki (nM), RET assay, Q7S enzyme, Morrison tight binding fit. In outline: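 Ki values fitted with the Morrison tight-binding equation from steady-state RET cleavage (ex 340, em 490 nm) of 5 μM RE(EDANS)SQNYPIVQK(DABCYL)R. Buffer pH 4.8 acetate, 1M NaCl, 5 mM DTT, 1 mg/ml BSA, 10% DMSO; 2 nM Q7S mutant dimer, 37 °C, 12 min.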

A further data set concerns 461, 84V, 90M virus. Kind of data set: Phenotypic susceptibility assay at Virologic, Inc. The data set is classed as cell-based, HIV-1. Particulars: Human immunodeficiency virus 1, read-out: EC50 or IC50 (mM), values with asterisk (IC50). Here is the method:
Compounds were tested in phenotypic susceptibility assays at Virologic, Inc., (See Petropoulos C. J., Parkin N. T., Limoli K. L., Lie Y. S., Wrin T., Huang W., Tian H., Smith D., Winslow G. A., Capon D J, Whitcomb J M. 2000, “A novel phenotypic drug susceptibility assay for human immunodeficiency virus type 1,” Antimicrob Agents Chemother 44(4):920–928) or using the assay described here. MT-2 cells were infected with either HIV-1 NL4-3 or HIV-1 NL4-3([…]) and incubated in the presence of serial 0.5 log dilutions of test compounds. Three days later, culture supernatants were collected and virus production, as determined by p24 ELISA, was assayed. Percent inhibition was calculated as p24 concentration in compound-treated samples as compared to infected, compound-free controls. Inhibition of viral replication is determined by measuring reduction in HIV p24 present in the culture supernatant, using a Beckman-Coulter p24HIV-1 Ag EIA kit and following the supplied protocol. Absorbance is read on a MRX microplate reader (Dynex Technologies). The EC50 was calculated as the concentration of compound that effected a decrease in the p24 production by infected, compound-treated cells to 50% of that produced by infected, compound-free cells.

Some results are limits rather than exact numbers.

By melting point is commonly meant the temperature, or range, at which the solid turns liquid. In general, EC50 refers to the concentration that produces a half-maximal response. By Ki is commonly meant a measure of affinity in units of concentration, obtained from inhibition or displacement. Read a low Ki as tighter binding. A word on the IC50: it is the midpoint of a concentration-inhibition curve. For `CC1(C)SCN(C(=O)[C@@H](O)[C@H](Cc2ccccc2)NC(=O)O[C@H]2CCOC2)[C@@H]1C(=O)N[C@H]1CCCc2ccccc21` [Example B33, ((1S,2S)-1-Benzyl-3-{(R)-5,5-dimethyl-4-[(S)-(1,2,3,4-tetrahydro-naphthalen-1-yl)carbamoyl]-thiazolidin-3-yl}-2-hydroxy-3-oxo-propyl)-carbamic acid (S)-(tetrahydro-furan-3-yl) ester], the melting point was in the range of 103 to 105 °C. The EC50 in data set [1] was determined as 45 nM. In data set [2], this molecule showed a Ki of less than 0.1 nM. In the data set with 461, 84V, 90M virus, the IC50 came to 604 nM.
`Cc1c(O)cccc1C(=O)N[C@@H](Cc1ccccc1)[C@H](O)C(=O)N1CSC(C)(C)[C@H]1C(=O)N[C@H]1CCc2ccccc21` [Example A35, (R)-3-((2S,3S)-2-Hydroxy-3-{[1-(3-hydroxy-2-methyl-phenyl)-methanoyl]-amino}-4-phenyl-butanoyl)-5,5-dimethyl-thiazolidine-4-carboxylic acid (S)-indan-1-ylamide] yielded a melting point of 204 to 206 °C. Moreover, the EC50 in data set [1] is 16 nM. In data set [2], this molecule yielded a Ki of less than 0.1 nM. The IC50 with 461, 84V, 90M virus came to 41 nM.
The molecule `Cc1c(O)cccc1C(=O)N[C@@H](Cc1ccccc1)[C@H](O)C(=O)N1CSC(C)(C)[C@H]1C(=O)N[C@H]1CCOc2ccccc21` [Example A17, (R)-3-((2S,3S)-2-Hydroxy-3-{[1-(3-hydroxy-2-methyl-phenyl)-methanoyl]-amino}-4-phenyl-butanoyl)-5,5-dimethyl-thiazolidine-4-carboxylic acid (S)-chroman-4-ylamide] had a melting point of 135 to 136 °C. The EC50 in data set [1] was determined as 24 nM. This molecule registered a Ki in data set [2] of less than 0.1 nM. Further, in the data set with 461, 84V, 90M virus, the IC50 came to 49 nM.
Take `Cc1c(O)cccc1C(=O)N[C@@H](Cc1ccccc1)[C@H](O)C(=O)N1CSC(C)(C)[C@H]1C(=O)N[C@H]1CCCc2ccccc21` [Example A1, 3-[2-Hydroxy-3-(3-hydroxy-2-methyl-benzoylamino)-4-phenyl-butyryl]-5,5-dimethyl-thiazolidine-4-carboxylic acid (1,2,3,4-tetrahydro-naphthalen-1-yl)-amide]: the melting point fell in the range of 125 to 126 °C. In addition, the EC50 in data set [1] turned out to be 29 nM. Moreover, the affinity in data set [2], expressed as Ki, was 0.21 nM.
For `Cc1c(O)cccc1C(=O)N[C@@H](Cc1ccccc1)[C@H](O)C(=O)N1CSC(C)(C)[C@H]1C(=O)NC1CCC(C)CC1` (stereo partly drawn) [Example A36, (R)-3-((2S,3S)-2-Hydroxy-3-{[1-(3-hydroxy-2-methyl-phenyl)-methanoyl]-amino}-4-phenyl-butanoyl)-5,5-dimethyl-thiazolidine-4-carboxylic acid (4-methyl-cyclohexyl)-amide] the same measures were 192 to 194 °C, 343 nM and 0.78 nM.
In turn, `Cc1c(O)cccc1C(=O)N[C@@H](Cc1ccccc1)[C@H](O)C(=O)N1CSC(C)(C)[C@H]1C(=O)N[C@@H]1C=CCCC1` [Example A32, (R)-3-((2S,3S)-2-Hydroxy-3-{[1-(3-hydroxy-2-methyl-phenyl)-methanoyl]-amino}-4-phenyl-butanoyl)-5,5-dimethyl-thiazolidine-4-carboxylic acid (S)-cyclohex-2-enylamide] yielded a melting point of 177 to 179 °C. Further, the EC50 in data set [1] was 12 nM. Moreover, in data set [2], the Ki was less than 0.1 nM. The IC50 with 461, 84V, 90M virus was found to be 55 nM.
For `Cc1cccc(C)c1OCC(=O)N[C@@H](Cc1ccccc1)[C@H](O)C(=O)N1CSC(C)(C)[C@H]1C(=O)N[C@H]1CCOc2ccccc21` [Example B30, (R)-3-{(2S,3S)-3-[2-(2,6-Dimethyl-phenoxy)-ethanoylamino]-2-hydroxy-4-phenyl-butanoyl}-5,5-dimethyl-thiazolidine-4-carboxylic acid (S)-chroman-4-ylamide], the melting point was in the range of 105 to 107 °C. Further, the EC50 in data set [1] worked out at 443 nM. Moreover, in data set [2], the Ki was 0.21 nM.
The molecule `Cc1c(O)cccc1C(=O)N[C@@H](Cc1ccccc1)[C@H](O)C(=O)N1CSC(C)(C)[C@H]1C(=O)NC[C@H]1CCCO1` [Example A12, (R)-3-((2S,3S)-2-Hydroxy-3-{[1-(3-hydroxy-2-methyl-phenyl)-methanoyl]-amino}-4-phenyl-butanoyl)-5,5-dimethyl-thiazolidine-4-carboxylic acid [(R)-1-(tetrahydro-furan-2-yl)methyl]-amide] showed a melting point of 105 to 107 °C. Also, in data set [1], the EC50 was found to be 127 nM. In data set [2], the Ki was 5.5 nM.
For `Cc1c(O)cccc1C(=O)N[C@@H](Cc1ccccc1)[C@H](O)C(=O)N1CSC(C)(C)[C@H]1C(=O)N[C@@H]1CCOc2ccccc21` [Example A16, (R)-3-((2S,3S)-2-Hydroxy-3-{[1-(3-hydroxy-2-methyl-phenyl)-methanoyl]-amino}-4-phenyl-butanoyl)-5,5-dimethyl-thiazolidine-4-carboxylic acid (R)-chroman4-ylamide] the same measures were 135 to 136 °C, 254 nM and 0.43 nM.
The molecule `Cc1c(O)cccc1C(=O)N[C@@H](Cc1ccccc1)[C@H](O)C(=O)N1CSC(C)(C)[C@H]1C(=O)N[C@H]1C=CCCC1` [Example A38, (R)-3-((2S,3S)-2-Hydroxy-3-{[1-(3-hydroxy-2-methyl-phenyl)-methanoyl]-amino}-4-phenyl-butanoyl)-5,5-dimethyl-thiazolidine-4-carboxylic acid (R)-cyclohex-2-enylamide] yielded a melting point of 193 to 195 °C. For the same molecule, in data set [1], the EC50 amounted to 38 nM. Also, the Ki in data set [2] was less than 0.1 nM.
Molecule `Cc1c(O)cccc1C(=O)N[C@@H](Cc1ccccc1)[C@H](O)C(=O)N1CSC(C)(C)[C@H]1C(=O)N[C@H]1CCSc2ccccc21` [Example A19, (R)-3-((2S,3S)-2-Hydroxy-3-{[1-(3-hydroxy-2-methyl-phenyl)-methanoyl]-amino}-4-phenyl-butanoyl)-5,5-dimethyl-thiazolidine-4-carboxylic acid (S)-thiochroman-4-ylamide] had a melting point of 125 to 127 °C. In addition, the EC50 in data set [1] turned out to be 15 nM. The same molecule displayed a Ki in data set [2] of 0.21 nM.
Taken in the same sequence, the figures for `Cc1c(O)cccc1C(=O)N[C@@H](Cc1ccccc1)[C@H](O)C(=O)N1CSC(C)(C)[C@H]1C(=O)N[C@@H]1CCc2ccccc21` [Example A29, (R)-3-((2S,3S)-2-Hydroxy-3-{[1-(3-hydroxy-2-methyl-phenyl)-methanoyl]-amino}-4-phenyl-butanoyl)-5,5-dimethyl-thiazolidine4-carboxylic acid (R)-indan-1-ylamide] were 128 to 130 °C, 118 nM and 0.31 nM.
The molecule `Cc1c(O)cccc1C(=O)N[C@@H](Cc1ccccc1)[C@H](O)C(=O)N1CSC(C)(C)[C@H]1C(=O)N[C@@H]1CCCc2ccccc21` [Example A4, 3-[2-Hydroxy-3-(3-hydroxy-2-methyl-benzoylamino)-4-phenyl-butyryl]-5,5-dimethyl-thiazolidine-4-carboxylic acid (1,2,3,4-tetrahydro-naphthalen-1-yl)-amide] registered a melting point of 123 to 125 °C. Moreover, the EC50 in data set [1] is 270 nM. In data set [2], this molecule registered a Ki of 2.2 nM.

The values above are taken from patent publication US7094909B2, “HIV protease inhibitors, compositions containing the same, their pharmaceutical uses and materials for their synthesis” (priority 2001, dated 2006).
